Reference: PubChem BioAssay AID1918949 (Molecular Pharmacology Branch, DTP, NCI, 2023)
Values joined by “and” are separate entries in the source; they are usually repeats but may differ in a detail not shown here. Equal values may be shown once.

System: K24384-001-R-PDC complex spheroid viability
Assay: Anticancer human tumor K24384-001-R-PDC patient-derived pancreatic adenocarcinoma cell line growth inhibition
Details: for viability, T/C: stronger effect = lower value
In short: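 Drug combinations with the LSD1 inhibitor iadademstat tested on tumor cells co-cultured as spheroids with endothelial cells and mesenchymal stem cells. Concentrations descended in half-log increments from clinical Cmax or 10 microM.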

[1] = curve of first compound, second compound 0.1 µM
[2] = curve of first compound, second compound 0.316 µM
[3] = curve of first compound, second compound 1 µM
[4] = curve of first compound, second compound 3.16 µM
[5] = curve of first compound, second compound 10 µM
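Further: spheroids exposed to agents for seven days before luminescence viability reading.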
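Wherever viability, T/C is given: 100% = DMSO vehicle control viability.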

`COc1ccc([C@@H](O)c2cc(-c3ncnc4cc(N5CCOCC5)ccc34)c(F)cc2Cl)nn1` was tested, and the viability, T/C (compound 0.0316 µM) was 102% and 111%, the viability, T/C (compound 0.1 µM) was 94.1% and 102% and the viability, T/C (compound 0.316 µM) was 94.3% and 82.1%. For the same molecule, the viability, T/C (compound 1 µM) was 68.3% and 63.3%, the viability, T/C (compound 3.16 µM) was 39.1% and 44.5% and the viability, T/C (compound 10 µM) was 15.3% and 16.4%. The IC50 (curve of compound) was 2.07 µM and 2.11 µM.
`CC[C@@]1(O)C(=O)OCc2c1cc1n(c2=O)Cc2cc3c(CN(C)C)c(O)ccc3nc2-1` + NC1CCC(NC2CC2c2ccccc2)CC1 showed an IC50 [1] of 0.0899 µM, an IC50 [2] of over 0.1 µM and an IC50 [3] of 0.0886 µM. It also gave an IC50 [4] of 0.0845 µM, an IC50 [5] of over 0.1 µM and a viability, T/C (second compound 0.1 µM, first compound 0.000316 µM) of 93.1%. For the same molecule, the viability, T/C (second compound 0.1 µM, first compound 0.001 µM) was 87.2%, the viability, T/C (second compound 0.1 µM, first compound 0.00316 µM) was 77.6% and the viability, T/C (second compound 0.1 µM, first compound 0.01 µM) was 68.9%. For the same molecule, the viability, T/C (second compound 0.1 µM, first compound 0.0316 µM) was 61.2%, the viability, T/C (second compound 0.1 µM, first compound 0.1 µM) was 48.1% and the viability, T/C (second compound 0.316 µM, first compound 0.000316 µM) was 99.3%. The viability, T/C (second compound 0.316 µM, first compound 0.001 µM) was 81.2%, the viability, T/C (second compound 0.316 µM, first compound 0.00316 µM) was 82.3% and the viability, T/C (second compound 0.316 µM, first compound 0.01 µM) was 84%. The viability, T/C (second compound 0.316 µM, first compound 0.0316 µM) was 70.2%, the viability, T/C (second compound 0.316 µM, first compound 0.1 µM) was 49.6% and the viability, T/C (second compound 1 µM, first compound 0.000316 µM) was 89.5%. It also gave a viability, T/C (second compound 1 µM, first compound 0.001 µM) of 82.7%, a viability, T/C (second compound 1 µM, first compound 0.00316 µM) of 75.5% and a viability, T/C (second compound 1 µM, first compound 0.01 µM) of 59%. It also gave a viability, T/C (second compound 1 µM, first compound 0.0316 µM) of 54.6%, a viability, T/C (second compound 1 µM, first compound 0.1 µM) of 49% and a viability, T/C (second compound 3.16 µM, first compound 0.000316 µM) of 93.7%. The viability, T/C (second compound 3.16 µM, first compound 0.001 µM) was 91.8%, the viability, T/C (second compound 3.16 µM, first compound 0.00316 µM) was 81% and the viability, T/C (second compound 3.16 µM, first compound 0.01 µM) was 77%. For the same molecule, the viability, T/C (second compound 3.16 µM, first compound 0.0316 µM) was 64.5%, the viability, T/C (second compound 3.16 µM, first compound 0.1 µM) was 47% and the viability, T/C (second compound 10 µM, first compound 0.000316 µM) was 101%. For the same molecule, the viability, T/C (second compound 10 µM, first compound 0.001 µM) was 88.2%, the viability, T/C (second compound 10 µM, first compound 0.00316 µM) was 88.7% and the viability, T/C (second compound 10 µM, first compound 0.01 µM) was 61.7%. The viability, T/C (second compound 10 µM, first compound 0.0316 µM) was 53.9% and the viability, T/C (second compound 10 µM, first compound 0.1 µM) was 49.8%.
`Nc1ncn(C2CC(O)C(CO)O2)c(=O)n1` (stereo unspecified) was tested, and the viability, T/C (compound 0.00316 µM) was 98.6% and 96.8%, the viability, T/C (compound 0.01 µM) was 88.9% and 94.9% and the viability, T/C (compound 0.0316 µM) was 93% and 100%. For the same molecule, the viability, T/C (compound 0.1 µM) was 84.2% and 77.6%, the viability, T/C (compound 0.316 µM) was 75.6% and 75.5% and the viability, T/C (compound 1 µM) was 75% and 87.2%. The IC50 (curve of compound) was over 1 µM.
`Nc1ccccc1NC(=O)c1ccc(CNC(=O)OCc2cccnc2)cc1` + NC1CC1c1ccc(-c2cccc(O)c2)cc1 showed an IC50 [1] of 0.43 µM, an IC50 [2] of 0.389 µM and an IC50 [3] of 0.358 µM. For the same molecule, the IC50 [4] was 0.328 µM, the IC50 [5] was 0.312 µM and the viability, T/C (second compound 0.1 µM, first compound 0.00949 µM) was 111%. The viability, T/C (second compound 0.1 µM, first compound 0.03 µM) was 113%, the viability, T/C (second compound 0.1 µM, first compound 0.0949 µM) was 118% and the viability, T/C (second compound 0.1 µM, first compound 0.3 µM) was 68.7%. It also gave a viability, T/C (second compound 0.1 µM, first compound 0.949 µM) of 9.69%, a viability, T/C (second compound 0.1 µM, first compound 3 µM) of 0.15% and a viability, T/C (second compound 0.316 µM, first compound 0.00949 µM) of 95.7%. For the same molecule, the viability, T/C (second compound 0.316 µM, first compound 0.03 µM) was 121%, the viability, T/C (second compound 0.316 µM, first compound 0.0949 µM) was 115% and the viability, T/C (second compound 0.316 µM, first compound 0.3 µM) was 63.1%. For the same molecule, the viability, T/C (second compound 0.316 µM, first compound 0.949 µM) was 7.2%, the viability, T/C (second compound 0.316 µM, first compound 3 µM) was 0.13% and the viability, T/C (second compound 1 µM, first compound 0.00949 µM) was 101%. For the same molecule, the viability, T/C (second compound 1 µM, first compound 0.03 µM) was 112%, the viability, T/C (second compound 1 µM, first compound 0.0949 µM) was 115% and the viability, T/C (second compound 1 µM, first compound 0.3 µM) was 58.6%. The viability, T/C (second compound 1 µM, first compound 0.949 µM) was 5.63%, the viability, T/C (second compound 1 µM, first compound 3 µM) was 0.16% and the viability, T/C (second compound 3.16 µM, first compound 0.00949 µM) was 96.1%. The viability, T/C (second compound 3.16 µM, first compound 0.03 µM) was 117%, the viability, T/C (second compound 3.16 µM, first compound 0.0949 µM) was 109% and the viability, T/C (second compound 3.16 µM, first compound 0.3 µM) was 54%. For the same molecule, the viability, T/C (second compound 3.16 µM, first compound 0.949 µM) was 3.27%, the viability, T/C (second compound 3.16 µM, first compound 3 µM) was 0.11% and the viability, T/C (second compound 10 µM, first compound 0.00949 µM) was 101%. The viability, T/C (second compound 10 µM, first compound 0.03 µM) was 110%, the viability, T/C (second compound 10 µM, first compound 0.0949 µM) was 95.6% and the viability, T/C (second compound 10 µM, first compound 0.3 µM) was 52.5%. For the same molecule, the viability, T/C (second compound 10 µM, first compound 0.949 µM) was 3.08% and the viability, T/C (second compound 10 µM, first compound 3 µM) was 0.17%.
`NC1CC1c1ccc(-c2cccc(O)c2)cc1` (stereo unspecified) gave a viability, T/C (compound 0.1 µM) of 108% and an IC50 (compound alone, run of 02/21/2022) of over 10 µM.
